Tests used:
HLA-A*02:01 = HLA-A*02:01 (Homo sapiens, UniProt P04439, D140Y/D185E/D98H/E176V/E277Q/G131W/G231S/I119V/I121R/I166T/I218V/L300P/L318F/N151K/N90K/P208A/P217A/Q86G/Q94H/R138H/R169H/T345S); type: binding
HLA-B*40:01 = HLA-B*40:01 (Homo sapiens, UniProt P01889, A65T/A93T/A95T/D138N/D98Y/E176V/E69K/N87E/Q56L/Q94N/R180L/S121R/S35A/S48T/T167S/V36M/W171L/Y33H/Y91S); type: binding
[1] = test system: autologous EBV+ B cells pulsed with peptide; type: cell-based, human; conditions: 5 h at 37°C

With LALLLLDRL the “binding to HLA-A*02:01 (thermal stability of the peptide-MHC-I complex, DSF)” value (HLA-A*02:01) was “did neither observe binding”.

In the case of LFFNKVTLA, the “binding to HLA-A*02:01 (thermal stability of the peptide-MHC-I complex, DSF)” value (HLA-A*02:01) is reported as “non-binder”.

In the case of LQLPQGTTL, the “binding to HLA-A*02:01 (thermal stability of the peptide-MHC-I complex, DSF)” value (HLA-A*02:01) is reported as “did neither observe binding”.

In the case of MEVTPSGTWL, the “binding to HLA-A*02:01 (thermal stability of the peptide-MHC-I complex, DSF)” value (HLA-A*02:01) is reported as “not to HLA-A*02:01” and the “binding to recombinant HLA-B*40:01 (DSF)” value (HLA-B*40:01) is reported as “specific binding”.

In the case of YFQPRTFLL [YLQ mutant], the “binding to HLA-A*02:01 (thermal stability of the peptide-MHC-I complex, DSF)” value (HLA-A*02:01) is reported as “weak binder”, the “killing of EBV+ B cells pulsed with the peptide by wild type YLQ expanded PBMCs” value [1] is reported as “failed to kill” and the “killing of peptide-pulsed EBV+ B cells by PBMCs expanded with the peptide” value [1] is reported as “failed to kill both wild type and mutant peptide pulsed EBV^+ B cells”.

For YLQPRTFLL [YLQ wildtype], the “killing of EBV+ B cells pulsed with the peptide by wild type YLQ expanded PBMCs” value [1] was “specific killing”.
